Source: patent US11034692B1 (Genentech, Inc., priority 2017, dated 2021)

biological target: HPK1; assay: HPK1 Lantha Binding Assay ("Lanth"); details: Table B1-1, read-out: HPK1 Ki (μM) (Lanth)
Method in brief: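 TR-FRET tracer displacement with 2 nM GST-tagged kinase, 2 nM Eu-anti-GST antibody and 15 nM Tracer222 at 23 C. Enzyme–antibody preincubated 1 h with compound, then tracer added for 1 h; 340 nm excitation, 615/665 nm emission. Ki from Morrison fit over an 11-point 5-fold dilution.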

Row | Ki | SMILES
1 | 7.39 nM | COc1ccc(C)c(-c2cc3cc(NC(=O)C4C[C@H]4c4cnn(C)c4)ncc3c(N)n2)c1 (stereo partly drawn) [Compound 289, (1R,2R)—N-[8-amino-6-(5-methoxy-2-methylphenyl)-2,7-naphthyridin-3-yl]-2-(1-methyl-H-pyrazol-4-yl)cyclopropane-1-carboxamide]
2 | 3.36 nM | Cc1ccc(C(=O)N(C)C)cc1-c1cc2cc(NC(=O)[C@H]3C[C@@H]3c3cnn(C)c3)ncc2c(N)n1 [Compound 290, 3-(1-amino-6-[[(1S,2S)-2-(1-methyl-1H-pyrazol-4-yl)cyclopropane]amido]-2,7-naphthyridin-3-yl)-N,N,4-trimethylbenzamide]
3 | 63.8 nM | Cc1ccc(C(=O)N(C)C)cc1-c1cc2cc(NC(=O)[C@@H]3C[C@H]3c3cnn(C)c3)ncc2c(N)n1 [Compound 291, 3-(1-amino-6-[[(1R,2R)-2-(1-methyl-1H-pyrazol-4-yl)cyclopropane]amido]-2,7-naphthyridin-3-yl)-N,N,4-trimethylbenzamide]
4 | 0.0417 nM | Cc1ccncc1-c1cc2cc(NC(=O)[C@H]3C[C@@H]3c3cnn(CCOCCN)c3)ncc2c(N)n1 [Compound 292, (1S,2S)—N-[8-amino-6-(4-methylpyridin-3-yl)-2,7-naphthyridin-3-yl]-2-[1-[2-(2-aminoethoxy)ethyl]-1H-pyrazol-4-yl]cyclopropane-1-carboxamide]
5 | 0.668 nM | Cc1ccncc1-c1cc2cc(NC(=O)[C@@H]3C[C@H]3c3cnn(CCOCCN)c3)ncc2c(N)n1 [Compound 293, (1R,2R)—N-[8-amino-6-(4-methylpyridin-3-yl)-2,7-naphthyridin-3-yl]-2-[1-[2-(2-aminoethoxy)ethyl]-1H-pyrazol-4-yl]cyclopropane-1-carboxamide]
6 | 0.287 nM | NCCOCCn1cc([C@H]2C[C@@H]2C(=O)Nc2cc3cc(-c4c(Cl)cccc4Cl)nc(N)c3cn2)cn1 [Compound 295, (1S,2S)—N-[8-amino-6-(2,6-dichlorophenyl)-2,7-naphthyridin-3-yl]-2-[1-[2-(2-aminoethoxy)ethyl]-1H-pyrazol-4-yl]cyclopropane-1-carboxamide]
7 | 0.026 nM | NCCOCCn1cc([C@@H]2C[C@H]2C(=O)Nc2cc3cc(-c4c(Cl)cccc4Cl)nc(N)c3cn2)cn1 [Compound 296, (1R,2R)—N-[8-amino-6-(2,6-dichlorophenyl)-2,7-naphthyridin-3-yl]-2-[1-[2-(2-aminoethoxy)ethyl]-1H-pyrazol-4-yl]cyclopropane-1-carboxamide]
8 | 0.932 nM | Cc1ccccc1-c1cc2cc(NC(=O)[C@@H]3C[C@H]3c3cnn(C)c3)ncc2c(N)n1 [Compound 298, (1R,2R)—N-[8-amino-6-(2-methylphenyl)-2,7-naphthyridin-3-yl]-2-(1-methyl-1H-pyrazol-4-yl)cyclopropane-1-carboxamide]
9 | 0.0359 nM | Cc1ccccc1-c1cc2cc(NC(=O)[C@H]3C[C@@H]3c3cnn(C)c3)ncc2c(N)n1 [Compound 299, (1S,2S)—N-[8-amino-6-(2-methylphenyl)-2,7-naphthyridin-3-yl]-2-(1-methyl-1H-pyrazol-4-yl)cyclopropane-1-carboxamide]
10 | 1.36 nM | Cc1ccc(C#N)cc1-c1cc2cc(NC(=O)[C@@H]3C[C@H]3c3cnn(C)c3)ncc2c(N)n1 [Compound 300, (1R,2R)—N-[8-amino-6-(5-cyano-2-methylphenyl)-2,7-naphthyridin-3-yl]-2-(1-methyl-1H-pyrazol-4-yl)cyclopropane-1-carboxamide]
11 | 0.0692 nM | Cc1ccc(C#N)cc1-c1cc2cc(NC(=O)[C@H]3C[C@@H]3c3cnn(C)c3)ncc2c(N)n1 [Compound 301, (1S,2S)—N-[8-amino-6-(5-cyano-2-methylphenyl)-2,7-naphthyridin-3-yl]-2-(1-methyl-1H-pyrazol-4-yl)cyclopropane-1-carboxamide]
12 | 0.65 nM | Cn1cc([C@@H]2C[C@H]2C(=O)Nc2cc3cc(-c4c(F)cccc4Cl)nc(N)c3cn2)cn1 [Compound 302, (1R,2R)—N-(8-amino-6-(2-chloro-6-fluorophenyl)-2,7-naphthyridin-3-yl)-2-(1-methyl-1H-pyrazol-4-yl)cyclopropanecarboxamide]
13 | 0.027 nM | Cn1cc([C@H]2C[C@@H]2C(=O)Nc2cc3cc(-c4c(F)cccc4Cl)nc(N)c3cn2)cn1 [Compound 303, (1S,2S)—N-(8-amino-6-(2-chloro-6-fluorophenyl)-2,7-naphthyridin-3-yl)-2-(1-methyl-H-pyrazol-4-yl)cyclopropanecarboxamide]
14 | 0.152 nM | Cn1cc([C@H]2C[C@@H]2C(=O)Nc2cc3cc(-c4ccccc4Cl)nc(N)c3cn2)cn1 [Compound 305, (1R,2R)—N-[8-amino-6-(2-chlorophenyl)-2,7-naphthyridin-3-yl]-2-(1-methyl-H-pyrazol-4-yl)cyclopropane-1-carboxamide]
15 | 3.04 nM | Cc1cc(-c2ncco2)ncc1-c1cc2cc(NC(=O)[C@H]3C[C@@H]3c3cnn(C)c3)ncc2c(N)n1 [Compound 308, (1S,2S)—N-[8-amino-6-[4-methyl-6-(1,3-oxazol-2-yl)pyridin-3-yl]-2,7-naphthyridin-3-yl]-2-(1-methyl-1H-pyrazol-4-yl)cyclopropane-1-carboxamide]
16 | 0.184 nM | Cc1cc(-c2ncco2)ncc1-c1cc2cc(NC(=O)[C@@H]3C[C@H]3c3cnn(C)c3)ncc2c(N)n1 [Compound 309, (1R,2R)—N-[8-amino-6-[4-methyl-6-(1,3-oxazol-2-yl)pyridin-3-yl]-2,7-naphthyridin-3-yl]-2-(1-methyl-1H-pyrazol-4-yl)cyclopropane-1-carboxamide]

Row | Ki | SMILES
17 | 0.0675 nM | N#CC[C@H]1C[C@@H]1C(=O)Nc1cc2cc(-c3c(Cl)cccc3Cl)nc(N)c2cn1 [Compound 310, (1S,2R)—N-(8-amino-6-(2,6-dichlorophenyl)-2,7-naphthyridin-3-yl)-2-(cyanomethyl)cyclopropanecarboxamide]
18 | 1.15 nM | N#CC[C@@H]1C[C@H]1C(=O)Nc1cc2cc(-c3c(Cl)cccc3Cl)nc(N)c2cn1 [Compound 311, (1R,2S)—N-(8-amino-6-(2,6-dichlorophenyl)-2,7-naphthyridin-3-yl)-2-(cyanomethyl)cyclopropanecarboxamide]
19 | 5.77 nM | Cc1ccncc1-c1cc2cc(NC(=O)[C@@H]3C[C@@]34CCNC(=O)C4)ncc2c(N)n1 [Compound 312, (1R,3S)—N-[8-amino-6-(4-methylpyridin-3-yl)-2,7-naphthyridin-3-yl]-5-oxo-6-azaspiro[2.5]octane-1-carboxamide]
20 | 0.02 nM | Cc1ccncc1-c1cc2cc(NC(=O)[C@H]3C[C@]34CCNC(=O)C4)ncc2c(N)n1 [Compound 313, (1S,3R)—N-[8-amino-6-(4-methylpyridin-3-yl)-2,7-naphthyridin-3-yl]-5-oxo-6-azaspiro[2.5]octane-1-carboxamide]
21 | 13.1 nM | Cc1ccncc1-c1cc2cc(NC(=O)[C@H]3C[C@@]34CCNC(=O)C4)ncc2c(N)n1 [Compound 314, (1S,3S)—N-[8-amino-6-(4-methylpyridin-3-yl)-2,7-naphthyridin-3-yl]-5-oxo-6-azaspiro[2.5]octane-1-carboxamide]
22 | 12.2 nM | Cc1ccncc1-c1cc2cc(NC(=O)[C@@H]3C[C@]34CCNC(=O)C4)ncc2c(N)n1 [Compound 315, (1R,3R)—N-[8-amino-6-(4-methylpyridin-3-yl)-2,7-naphthyridin-3-yl]-5-oxo-6-azaspiro[2.5]octane-1-carboxamide]
23 | 0.522 nM | Cc1ccncc1-c1nc(N)c2cnc(NC(=O)[C@@H]3C[C@H]3CC#N)cc2c1C1CC1 [Compound 316, (1R,2S)—N-(8-amino-5-cyclopropyl-6-(4-methylpyridin-3-yl)-2,7-naphthyridin-3-yl)-2-(cyanomethyl)cyclopropanecarboxamide]
24 | 0.02 nM | Cc1ccncc1-c1nc(N)c2cnc(NC(=O)[C@H]3C[C@@H]3CC#N)cc2c1C1CC1 [Compound 317, (1S,2R)—N-(8-amino-5-cyclopropyl-6-(4-methylpyridin-3-yl)-2,7-naphthyridin-3-yl)-2-(cyanomethyl)cyclopropanecarboxamide]
25 | 0.032 nM | Cc1ccnc(-c2ccccc2)c1-c1cc2cc(NC(=O)[C@H]3C[C@@H]3c3cnn(C)c3)ncc2c(N)n1 [Compound 318, (1S,2S)—N-(8-amino-6-(4-methyl-2-phenylpyridin-3-yl)-2,7-naphthyridin-3-yl)-2-(1-methyl-1H-pyrazol-4-yl)cyclopropanecarboxamide]
26 | 0.02 nM | Cc1ccnc(-c2ccccc2)c1-c1cc2cc(NC(=O)[C@@H]3C[C@H]3c3cnn(C)c3)ncc2c(N)n1 [Compound 319, (1R,2R)—N-(8-amino-6-(4-methyl-2-phenylpyridin-3-yl)-2,7-naphthyridin-3-yl)-2-(1-methyl-1H-pyrazol-4-yl)cyclopropanecarboxamide]
27 | 7.82 nM | Cc1ccncc1-c1cc2cc(NC(=O)[C@H]3CC[C@@H]3C)ncc2c(N)n1 [Compound 320, (1S,2S)—N-(8-amino-6-(4-methylpyridin-3-yl)-2,7-naphthyridin-3-yl)-2-methylcyclobutanecarboxamide]
28 | 57.4 nM | Cc1ccncc1-c1cc2cc(NC(=O)[C@H]3CC[C@H]3C)ncc2c(N)n1 [Compound 321, (1S,2R)—N-(8-amino-6-(4-methylpyridin-3-yl)-2,7-naphthyridin-3-yl)-2-methylcyclobutanecarboxamide]
29 | 14.8 nM | Cc1ccncc1-c1cc2cc(NC(=O)[C@@H]3CC[C@H]3C)ncc2c(N)n1 [Compound 322, (1R,2R)—N-(8-amino-6-(4-methylpyridin-3-yl)-2,7-naphthyridin-3-yl)-2-methylcyclobutanecarboxamide]
30 | 76.3 nM | Cc1ccncc1-c1cc2cc(NC(=O)[C@@H]3CC[C@@H]3C)ncc2c(N)n1 [Compound 323, (1R,2S)—N-(8-amino-6-(4-methylpyridin-3-yl)-2,7-naphthyridin-3-yl)-2-methylcyclobutanecarboxamide]
31 | 0.48 nM | Cc1ccncc1-c1cc2cc(NC(=O)[C@H]3C[C@@H]3C3CCOCC3)ncc2c(N)n1 [Compound 324, (1S,2R)—N-[8-amino-6-(4-methylpyridin-3-yl)-2,7-naphthyridin-3-yl]-2-(oxan-4-yl)cyclopropane-1-carboxamide]
